Measured values reported in patent US20250034144A1, “NEW CRYSTAL FORM OF ERTAPENEM SODIUM AND PREPARATION METHOD THEREFOR” (ASYMCHEM LABORATORIES (TIANJIN) CO., LTD., priority 2021, published 2025).
One block for each compound: values may come before it.

Assays:
[1] = Fluidity related test (densities, Carr index, Hausner ratio, angle of repose); type: physicochemical
Procedure: (Two) A fluidity related test was carried out on the crystal form A product of ertapenem sodium, the crystal form B product, the crystal form C product, the crystal form D product, the crystal form E product and the amorphous product of ertapenem sodium. [formula] [formula] [table]

[2] = Stability of the product at −18° C. (purity and content over 12 months); type: physicochemical
Procedure: Data of the stability of the product at −18° C. are shown in Table 2 below: […]

SMILES: C[C@@H](O)[C@H]1C(=O)N2C(C(=O)[O-])=C(S[C@@H]3CN[C@H](C(=O)Nc4cccc(C(=O)O)c4)C3)[C@H](C)[C@H]12.[Na+] [Crystal form E, ertapenem sodium]
Angle of repose [1]: 46°
Bulk density [1]: 0.66 g/mL
Carr index [1]: 20%
Hausner ratio [1]: 1.26
Tap density [1]: 0.83 g/mL

SMILES: C[C@@H](O)[C@H]1C(=O)N2C(C(=O)[O-])=C(S[C@@H]3CN[C@H](C(=O)Nc4cccc(C(=O)O)c4)C3)[C@H](C)[C@H]12.[Na+] [Crystal form D, ertapenem sodium]
Angle of repose [1]: 47°
Bulk density [1]: 0.64 g/mL
Carr index [1]: 21%
Hausner ratio [1]: 1.27
Tap density [1]: 0.81 g/mL

SMILES: C[C@@H](O)[C@H]1C(=O)N2C(C(=O)[O-])=C(S[C@@H]3CN[C@H](C(=O)Nc4cccc(C(=O)O)c4)C3)[C@H](C)[C@H]12.[Na+] [Crystal form B, ertapenem sodium]
Angle of repose [1]: 41°
Bulk density [1]: 0.63 g/mL
Carr index [1]: 20%
Hausner ratio [1]: 1.25
Tap density [1]: 0.79 g/mL

SMILES: C[C@@H](O)[C@H]1C(=O)N2C(C(=O)[O-])=C(S[C@@H]3CN[C@H](C(=O)Nc4cccc(C(=O)O)c4)C3)[C@H](C)[C@H]12.[Na+] [Amorphous, ertapenem sodium]
Angle of repose [1]: 47°
Bulk density [1]: 0.63 g/mL
Carr index [1]: 20%
Hausner ratio [1]: 1.25
Tap density [1]: 0.79 g/mL

SMILES: C[C@@H](O)[C@H]1C(=O)N2C(C(=O)[O-])=C(S[C@@H]3CN[C@H](C(=O)Nc4cccc(C(=O)O)c4)C3)[C@H](C)[C@H]12.[Na+] [Example 2, ertapenem sodium]
Content ([2]; 0 month): 99.1%
Purity ([2]; 0 month): 99.2%
Content ([2]; 1 month): 99.1%
Purity ([2]; 1 month): 99.2%
Content ([2]; 2 months): 99.1%
Purity ([2]; 2 months): 99.2%
Content ([2]; 3 months): 99.1%
Purity ([2]; 3 months): 99.2%
Content ([2]; 4 months): 99.1%
Purity ([2]; 4 months): 99.2%
Content ([2]; 5 months): 99.0%
Purity ([2]; 5 months): 99.1%
Content ([2]; 6 months): 99.0%
Purity ([2]; 6 months): 99.1%
Content ([2]; 7 months): 99.0%
Purity ([2]; 7 months): 99.1%
Content ([2]; 8 months): 99.0%
Purity ([2]; 8 months): 99.1%
Content ([2]; 9 months): 99.0%
Purity ([2]; 9 months): 99.1%
Content ([2]; 10 months): 99.0%
Purity ([2]; 10 months): 99.0%
Content ([2]; 11 months): 99.0%
Purity ([2]; 11 months): 99.0%
Content ([2]; 12 months): 99.0%
Purity ([2]; 12 months): 99.0%
Stability of the crystal form product (in words) ([2]; 12 months): very stable

SMILES: C[C@@H](O)[C@H]1C(=O)N2C(C(=O)[O-])=C(S[C@@H]3CN[C@H](C(=O)Nc4cccc(C(=O)O)c4)C3)[C@H](C)[C@H]12.[Na+] [Crystal form F, ertapenem sodium]
Angle of repose [1]: 23°
Bulk density [1]: 0.64 g/mL
Carr index [1]: 10%
Hausner ratio [1]: 1.11
Tap density [1]: 0.71 g/mL
Fluidity (in words) ([1]; compared with crystal forms A-E and the amorphous product): better fluidity

Second part, the compound after the results:

Content ([2]; 0 month): 99.2%
Purity ([2]; 0 month): 99.4%
Content ([2]; 1 month): 99.2%
Purity ([2]; 1 month): 99.4%
Content ([2]; 2 months): 99.2%
Purity ([2]; 2 months): 99.4%
Content ([2]; 3 months): 99.2%
Purity ([2]; 3 months): 99.4%
Content ([2]; 4 months): 99.2%
Purity ([2]; 4 months): 99.3%
Content ([2]; 5 months): 99.1%
Purity ([2]; 5 months): 99.3%
Content ([2]; 6 months): 99.1%
Purity ([2]; 6 months): 99.3%
Content ([2]; 7 months): 99.1%
Purity ([2]; 7 months): 99.3%
Content ([2]; 8 months): 99.1%
Purity ([2]; 8 months): 99.3%
Content ([2]; 9 months): 99.1%
Purity ([2]; 9 months): 99.3%
Content ([2]; 10 months): 99.1%
Purity ([2]; 10 months): 99.3%
Content ([2]; 11 months): 99.0%
Purity ([2]; 11 months): 99.2%
Content ([2]; 12 months): 99.0%
Purity ([2]; 12 months): 99.2%
Stability of the crystal form product (in words) ([2]; 12 months): very stable
SMILES: C[C@@H](O)[C@H]1C(=O)N2C(C(=O)[O-])=C(S[C@@H]3CN[C@H](C(=O)Nc4cccc(C(=O)O)c4)C3)[C@H](C)[C@H]12.[Na+] [Example 1, ertapenem sodium]

Angle of repose [1]: 43°
Bulk density [1]: 0.64 g/mL
Carr index [1]: 22%
Hausner ratio [1]: 1.28
Tap density [1]: 0.82 g/mL
SMILES: C[C@@H](O)[C@H]1C(=O)N2C(C(=O)[O-])=C(S[C@@H]3CN[C@H](C(=O)Nc4cccc(C(=O)O)c4)C3)[C@H](C)[C@H]12.[Na+] [Crystal form A, ertapenem sodium]

Angle of repose [1]: 43°
Bulk density [1]: 0.63 g/mL
Carr index [1]: 19%
Hausner ratio [1]: 1.24
Tap density [1]: 0.78 g/mL
SMILES: C[C@@H](O)[C@H]1C(=O)N2C(C(=O)[O-])=C(S[C@@H]3CN[C@H](C(=O)Nc4cccc(C(=O)O)c4)C3)[C@H](C)[C@H]12.[Na+] [Crystal form C, ertapenem sodium]
